For assay [1], the system named is Felis catus. The assay can be described thus: Duration of hypotensive activity in cat following i.v. administration of 1 mg/kg. Type of assay: functional. The conditions noted are these: route intravenous.
Assay [2] relates to Felis catus. In words: Hypotensive activity in cat following i.v. administration of 5 mg/kg expressed as fall in blood pressure. Type of assay: functional. The conditions noted are these: route intravenous.
Assay [3] concerns Felis catus. The assay can be described thus: Hypotensive activity in cat following i.v. administration of 1 mg/kg expressed as fall in blood pressure. Conditions: route intravenous. Type of assay: functional.
Assay [4] relates to Felis catus. In words: Duration of hypotensive activity in cat following i.v. administration of 5 mg/kg. Type of assay: functional. Conditions: route intravenous.
Assay [5] deals with Felis catus. In words: Hypotensive activity in cat following i.v. administration of 5 mg/kg expressed as fall in blood pressure; D denotes death. Type of assay: functional, organism-based. More on the design: dose 5 mg/kg.
Assay [6] has as its system Felis catus. In words: Hypotensive activity in cat following i.v. administration of 5 mg/kg expressed as fall in blood pressure; NA denotes not active. Type of assay: functional, organism-based. Details: dose 5 mg/kg. Conditions: at 5 mg/kg.
For assay [7], the system named is Felis catus. In words: Hypotensive activity in cat following i.v. administration of 1 mg/kg expressed as fall in blood pressure; NA denotes not active. Type of assay: functional, organism-based. More on the design: dose 1 mg/kg. The conditions noted are these: for Max effect: at 1 mg/kg.

Calls of active or inactive are those of the source. The rule behind the calls is not given here. Where only a bound is given, the exact number is not on record here.

As to `c1ccc2cc(OCN3CCCCC3)ccc2c1`, the figures for the Duration in assay [1] and in assay [4] were 2 min and 17 min, respectively. Also, the “Decrease in blood pressure” value in assay [2] is 44 mmHg; in assay [3] it was 20 mmHg. Also, the Max effect is reported as 52% in assay [2] and 21% in assay [3].
In turn, `CN1CCN(COc2ccc3ccccc3c2)CC1` came in with a Duration in assay [1] of 2 min. Further, in assay [5], the “Decrease in blood pressure” value is reported as “Death”. In assay [3], the “Decrease in blood pressure” value amounted to 18 mmHg and the Max effect is 21%. The Max effect result in assay [6] is “inactive”.
As for `O=C(O)C(CCOc1cccc2ccccc12)CN1CCN(c2ccccc2)CC1` (stereo not given), the Duration was 2 min in assay [1] and 7 min in assay [4]. In addition, the “Decrease in blood pressure” value is given as 50 mmHg in assay [2] and 20 mmHg in assay [3]. The Max effect in assay [2] was 40%; in assay [3], 14%.
Regarding `CC(C)NCC(O)COc1cccc2ccccc12` (stereo not given) [PROPRANOLOL], the Duration is 40 min in assay [1] and above 60 min in assay [4]. The entries for the “Decrease in blood pressure” value in assay [2] and in assay [3] were 50 mmHg and 46 mmHg, respectively. Further, the Max effect came out at 41% in assay [2] and 35% in assay [3].
With `c1ccc(N2CCN(COc3ccc4ccccc4c3)CC2)cc1`, the Duration in assay [1] is 16 min; in assay [4] it was 120 min. Also, the “Decrease in blood pressure” value came to 60 mmHg in assay [2] and 40 mmHg in assay [3]. Also, the Max effect in assay [2] is listed as 75%; in assay [3], 50%.
In the case of `O=C(O)C(CCOc1cccc2ccccc12)CN1CCOCC1` (stereo not given), the Duration in assay [1] and in assay [4] was 2 min in each case. Besides, the results for the “Decrease in blood pressure” value in assay [2] and in assay [3] were 16 mmHg and 18 mmHg, respectively. For the same compound, the Max effect in assay [2] and in assay [3] was 17% each time.
For the compound `c1ccc2cc(OCN3CCCC3)ccc2c1`, the figures for the Duration in assay [1] and in assay [4] were 10 min and 16 min, respectively. Also, the “Decrease in blood pressure” value was determined as 30 mmHg in assay [2] and 12 mmHg in assay [3]. The figures for the Max effect in assay [2] and in assay [3] were 19% and 7%, respectively.
`CN1CCN(CC(CCOc2cccc3ccccc23)C(=O)O)CC1` (stereo not given): the Duration is 2 min in assay [1] and 4 min in assay [4]. Moreover, the “Decrease in blood pressure” value worked out at 34 mmHg in assay [2] and 18 mmHg in assay [3]. Further, the Max effect in assay [2] was 38%; in assay [3] it was 17%.
On to `c1ccc2cc(OCN3CCOCC3)ccc2c1`, for which, in assay [2], the “Decrease in blood pressure” value is 50 mmHg and the Max effect was found to be 41%. Besides, in assay [7], the “Decrease in blood pressure” value was “inactive” and the Max effect result was “inactive”. In assay [4], this compound returned a Duration above 35 min.
Consider `O=C(O)C(CCOc1cccc2ccccc12)CN1CCCCC1` (stereo not given), for which the Duration in assay [1] turned out to be 16 min; in assay [4], 50 min. The “Decrease in blood pressure” value turned out to be 40 mmHg in assay [2] and 30 mmHg in assay [3]. For the same compound, the Max effect in assay [2] is listed as 47%; in assay [3] it was 19%.
Turning to `O=C(O)C(CCOc1cccc2ccccc12)CN1CCNCC1` (stereo not given), the Duration in assay [1] is reported as 12 min; in assay [4], 7 min. Moreover, the “Decrease in blood pressure” value in assay [2] amounted to 25 mmHg; in assay [3], 12 mmHg. Moreover, the Max effect in assay [2] is on record as 19%; in assay [3] it was 7%.
`c1ccc2cc(OCN3CCNCC3)ccc2c1`: in assay [2], the “Decrease in blood pressure” value worked out at 10 mmHg and the Max effect is on record as 7%. In assay [7], the “Decrease in blood pressure” value is “inactive” and the Max effect entry is “inactive”. In addition, in assay [4], the Duration stood at 2 min.
As to `O=C(O)C(CCOc1cccc2ccccc12)CN1CCCC1` (stereo not given), the results for the Duration in assay [1] and in assay [4] were 2 min and 30 min, respectively. The “Decrease in blood pressure” value in assay [2] was 20 mmHg; in assay [3], 10 mmHg. Further, the Max effect came out at 17% in assay [2] and 8% in assay [3].

These data come from ChEMBL document CHEMBL1137974, “1- and 2-substituted naphthalenes: a new class of potential hypotensive agents” (2004).
